Reference: PubChem BioAssay AID256 (DTP/NCI, 2004)
Where “and” joins values, the source holds several entries; their conditions need not be identical. Identical values can stand only once. Inconclusive results and toxic doses are left out.

Tested on: CD2F1 mice, L1210 leukemia ip, survival T/C
Experiment: NCI In Vivo Anticancer Drug Screen. Data for tumor model L1210 Leukemia (intraperitoneal) in CD2F1 (CDF1) mice
Conditions: higher = longer survival
Method in brief: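 Tumor-bearing mice (transplanted tumor) were split into treated and vehicle control groups, and the measured endpoint of each treated group was divided by that of its vehicle controls.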

[1] = endpoint: mean survival time, dose: 100.0 mg/kg/injection, schedule: Q04DX002 (ip), vehicle: saline with Tween-80
[2] = endpoint: mean survival time, dose: 200.0 mg/kg/injection, schedule: Q04DX002 (ip), vehicle: saline with Tween-80
[3] = endpoint: mean survival time, dose: 100.0 mg/kg/injection, schedule: Q01DX009 (ip), vehicle: saline
[4] = endpoint: mean survival time, dose: 100.0 mg/kg/injection, schedule: Q04DX003 (ip), vehicle: saline
[5] = endpoint: mean survival time, dose: 200.0 mg/kg/injection, schedule: Q04DX003 (ip), vehicle: saline
[6] = endpoint: mean survival time, dose: 100.0 mg/kg/injection, schedule: Q01DX001 (ip), vehicle: saline with Tween-80

Which results are given for `Cn1c(=O)c2c(nc(N3CCOCC3)n2CC(O)CF)n(C)c1=O` (stereo not given)?
T/C (endpoint: mean survival time, dose: 12.5 mg/kg/injection, schedule: Q01DX005 (ip), vehicle: distilled water + Tween-80): 95 % of control; T/C (endpoint: mean survival time, dose: 25.0 mg/kg/injection, schedule: Q01DX005 (ip), vehicle: distilled water + Tween-80): 98 % of control; T/C (endpoint: mean survival time, dose: 50.0 mg/kg/injection, schedule: Q01DX005 (ip), vehicle: distilled water + Tween-80): 103 % of control; T/C (endpoint: mean survival time, dose: 100.0 mg/kg/injection, schedule: Q01DX005 (ip), vehicle: distilled water + Tween-80): 97 % of control; T/C (endpoint: mean survival time, dose: 200.0 mg/kg/injection, schedule: Q01DX005 (ip), vehicle: distilled water + Tween-80): 104 % of control

What does the source list for `CC(C)=N/N=C(N)/C(N)=N/N=C(C)C`?
T/C [1]: 103 % of control; T/C [2]: 106 % of control; T/C (endpoint: mean survival time, dose: 400.0 mg/kg/injection, schedule: Q04DX002 (ip), vehicle: saline with Tween-80): 95 % of control

How did the T/C (endpoint: mean survival time, dose: 100.0 mg/kg/injection, schedule: Q01DX001 (ip), vehicle: other) turn out when `COCC1=Nc2c(ncnc2SCc2ccccc2)NN1` was run?
Its T/C is 95 % of control.

Which results are given for `CN(C)[C@@H]1C(=O)C(C(=O)NCN2CCN(C(=N)N=C(N)N)CC2)=C(O)[C@@]2(O)C(=O)C3=C(O)c4c(O)cccc4[C@@](C)(O)[C@H]3C[C@@H]12`?
T/C (endpoint: mean survival time, dose: 1.25 mg/kg/injection, schedule: Q01DX001 (ip), vehicle: saline): 111 % of control; T/C (endpoint: median survival time, dose: 0.31 mg/kg/injection, schedule: Q01DX009 (ip), vehicle: saline): 107 % of control; T/C (endpoint: median survival time, dose: 0.62 mg/kg/injection, schedule: Q01DX009 (ip), vehicle: saline): 110 % of control; T/C (endpoint: median survival time, dose: 1.25 mg/kg/injection, schedule: Q01DX009 (ip), vehicle: saline): 103 % of control; T/C (endpoint: median survival time, dose: 2.0 mg/kg/injection, schedule: Q01DX009 (ip), vehicle: saline): 109 % of control; T/C (endpoint: median survival time, dose: 5.0 mg/kg/injection, schedule: Q01DX009 (ip), vehicle: saline): 87 % of control

For `O=C1Nc2ccccc2/C1=C/c1c[nH]c2ccccc12`, which T/C (endpoint: mean survival time, dose: 50.0 mg/kg/injection, schedule: Q04DX002 (ip), vehicle: saline with Tween-80) is on record?
The T/C was 103 % of control.

And the T/C [1]?
Its T/C is 90 % of control.

And the T/C [2]?
Its T/C is 107 % of control.

Which results are given for `O=S(=O)(O)c1cncc(S(=O)(=O)O)n1`?
T/C [3]: 90 % of control; T/C [4]: 100 % of control; T/C (endpoint: mean survival time, dose: 200.0 mg/kg/injection, schedule: Q01DX009 (ip), vehicle: saline): 97 % of control; T/C [5]: 98 % of control; T/C (endpoint: mean survival time, dose: 400.0 mg/kg/injection, schedule: Q01DX009 (ip), vehicle: saline): 100 % of control; T/C (endpoint: mean survival time, dose: 400.0 mg/kg/injection, schedule: Q04DX003 (ip), vehicle: saline): 93 % of control

How did the T/C [6] turn out when `O=C1c2ccccc2CCC1(Br)Cc1ccccc1` (stereo not given) was run?
Its T/C is 98 % of control.

What about the T/C (endpoint: mean survival time, dose: 200.0 mg/kg/injection, schedule: Q01DX001 (ip), vehicle: saline with Tween-80) of the same compound?
Its T/C is 96 % of control.

And the T/C (endpoint: mean survival time, dose: 400.0 mg/kg/injection, schedule: Q01DX001 (ip), vehicle: saline with Tween-80)?
The T/C was 94 % of control.

For `CC1(C)N=C(N)N=C(N)N1c1ccc(OCCCCNC(=O)Nc2cccc(S(=O)(=O)F)c2)c(Cl)c1`, which T/C (endpoint: mean survival time, dose: 25.0 mg/kg/injection, schedule: Q01DX001 (ip), vehicle: saline with Tween-80) is on record?
Its T/C is 105 % of control.

And the T/C (endpoint: mean survival time, dose: 50.0 mg/kg/injection, schedule: Q01DX001 (ip), vehicle: saline with Tween-80)?
The T/C was 103 % of control.

And the T/C [6]?
The T/C was 95 % of control and 97 % of control.

Which T/C (endpoint: mean survival time, dose: 100.0 mg/kg/injection, schedule: Q04DX003 (ip), vehicle: saline with Tween-80) does the source give for `CC1(C)C2CCC1(C(=O)O)C(=O)C2` (stereo not given) here?
Its T/C is 92 % of control.

What about the T/C (endpoint: mean survival time, dose: 200.0 mg/kg/injection, schedule: Q04DX003 (ip), vehicle: saline with Tween-80) of the same compound?
The T/C was 92 % of control.

What about the T/C (endpoint: mean survival time, dose: 400.0 mg/kg/injection, schedule: Q04DX003 (ip), vehicle: saline with Tween-80) of the same compound?
Its T/C is 87 % of control.

For `CCC/C=C/C(O)C(C)C(C)C` (stereo not given), which T/C (endpoint: mean survival time, dose: 50.0 mg/kg/injection, schedule: Q01DX009 (ip), vehicle: saline with Tween-80) is on record?
The T/C was 103 % of control.

What about the T/C (endpoint: mean survival time, dose: 100.0 mg/kg/injection, schedule: Q01DX009 (ip), vehicle: saline with Tween-80) of the same compound?
The T/C was 103 % of control.

What about the T/C (endpoint: mean survival time, dose: 200.0 mg/kg/injection, schedule: Q01DX009 (ip), vehicle: saline with Tween-80) of the same compound?
The T/C was 98 % of control.

For `Cc1ccccc1[As](c1ccccc1C)c1ccccc1C`, which T/C (endpoint: mean survival time, dose: 25.0 mg/kg/injection, schedule: Q01DX009 (ip), vehicle: saline) is on record?
The T/C was 86 % of control.

And the T/C [3]?
The T/C was 86 % of control.

Which results are given for `CCCC[CH2][Pb]([CH2]CCCC)([CH2]CCCC)[O]C(C)=O`?
T/C (endpoint: mean survival time, dose: 0.25 mg/kg/injection, schedule: Q01DX009 (ip), vehicle: saline with Tween-80): 96 % of control; T/C (endpoint: mean survival time, dose: 0.5 mg/kg/injection, schedule: Q01DX009 (ip), vehicle: saline with Tween-80): 93 % of control; T/C (endpoint: mean survival time, dose: 1.0 mg/kg/injection, schedule: Q01DX009 (ip), vehicle: saline with Tween-80): 90 % of control; T/C (endpoint: mean survival time, dose: 1.0 mg/kg/injection, schedule: Q04DX003 (ip), vehicle: saline with Tween-80): 95 % of control

How did the T/C [4] turn out when `CCOP(=O)(OCC)C(C#N)Cc1ccccc1OC` (stereo not given) was run?
The T/C was 98 % of control.

What about the T/C [5] of the same compound?
Its T/C is 101 % of control.

`CCCCCCCCCCCCCC(=O)OC1C(CO)OC2C1Oc1nc(=N)ccn12` (stereo not given) was tested. Which T/C (endpoint: mean survival time, dose: 25.0 mg/kg/injection, schedule: Q01DX009 (ip), vehicle: other) did it give?
Its T/C is 153 % of control.

And the T/C (endpoint: mean survival time, dose: 50.0 mg/kg/injection, schedule: Q01DX009 (ip), vehicle: other)?
The T/C was 212 % of control.

And the T/C (endpoint: mean survival time, dose: 100.0 mg/kg/injection, schedule: Q01DX009 (ip), vehicle: other)?
The T/C was 278 % of control.

With `CSC(=S)NNC(=O)c1cccc(S(=O)(=O)F)c1` as the compound, how does the T/C (endpoint: mean survival time, dose: 75.0 mg/kg/injection, schedule: Q01DX001 (ip), vehicle: saline) read?
The T/C was 97 % of control.

What about the T/C (endpoint: mean survival time, dose: 150.0 mg/kg/injection, schedule: Q01DX001 (ip), vehicle: saline) of the same compound?
Its T/C is 96 % of control.

And the T/C (endpoint: mean survival time, dose: 300.0 mg/kg/injection, schedule: Q01DX001 (ip), vehicle: saline)?
The T/C was 96 % of control.
